In patent publication US10806737B2, “Compounds and methods for the targeted degradation of fetal liver kinase polypeptides” (Arvinas Operations, Inc., priority 2016, dated 2020):
Where two headings read alike, the source gives them in different places.

Experiments:
FLT-3 = target: T1, FLT-3 (Homo sapiens, UniProt P36888, INS600HVDFREYEYD); experiment: Cellular assay of target protein degradation (MV-4-11 cells, westernblot); assay type: cell-based; settings: Table 3; FLT-3 degradation, result in words
T1 construct: probed with antibodies specific for FLT-3 and GAPDH; endogenous in cells; host or cells: MV-4-11 cells
T1 sequence (P36888 with tags, fused parts or gaps INS600HVDFREYEYD): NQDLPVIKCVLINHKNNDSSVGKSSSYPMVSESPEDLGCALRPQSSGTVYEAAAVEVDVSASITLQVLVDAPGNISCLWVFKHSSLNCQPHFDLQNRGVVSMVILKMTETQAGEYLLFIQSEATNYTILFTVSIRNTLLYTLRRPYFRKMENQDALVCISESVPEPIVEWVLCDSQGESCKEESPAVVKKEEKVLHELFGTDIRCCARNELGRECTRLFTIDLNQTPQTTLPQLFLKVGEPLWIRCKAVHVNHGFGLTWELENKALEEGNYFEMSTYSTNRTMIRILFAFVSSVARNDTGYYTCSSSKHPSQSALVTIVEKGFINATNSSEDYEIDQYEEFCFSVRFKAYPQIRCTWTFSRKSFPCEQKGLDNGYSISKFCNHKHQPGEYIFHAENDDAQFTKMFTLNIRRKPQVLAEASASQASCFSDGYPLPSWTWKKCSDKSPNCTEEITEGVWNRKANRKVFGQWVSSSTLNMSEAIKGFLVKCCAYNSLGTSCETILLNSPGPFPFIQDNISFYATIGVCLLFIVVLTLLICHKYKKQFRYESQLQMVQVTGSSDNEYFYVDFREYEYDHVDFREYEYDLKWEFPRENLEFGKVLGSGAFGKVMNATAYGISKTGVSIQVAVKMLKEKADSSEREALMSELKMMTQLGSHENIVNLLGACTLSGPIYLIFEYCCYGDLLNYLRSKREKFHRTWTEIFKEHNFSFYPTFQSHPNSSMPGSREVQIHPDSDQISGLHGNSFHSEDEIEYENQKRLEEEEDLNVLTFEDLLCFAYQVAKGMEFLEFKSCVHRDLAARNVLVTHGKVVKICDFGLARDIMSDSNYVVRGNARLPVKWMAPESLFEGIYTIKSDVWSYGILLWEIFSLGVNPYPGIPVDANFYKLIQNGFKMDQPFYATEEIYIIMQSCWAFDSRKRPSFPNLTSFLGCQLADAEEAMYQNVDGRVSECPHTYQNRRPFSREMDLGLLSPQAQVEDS
Description: Protocol for the Cellular Assay of Target Protein Degradation (MV-4-11 Cells, Westernblot).
MV-4-11 cells (approximately 1 million cells per well) were treated with the indicated concentrations ([…]) of compound for 24 hours. The cells were spun down and washed twice with PBS. The cells were suspended by lysis buffer (50 mM Tris (pH7.4), 150 mM NaCl, 1 mM EDTA, 0.5% NP-40, phosphatase and protease inhibitors) and incubated for an additional 30 min at 4° C. for complete lysis. After another centrifugation (13000 rpm for 15 minutes), the supernatants were kept as cell lysates. The protein concentration of the cell lysates was determined via the bicinchoninic acid (BCA) method. Equal amounts (10-20 μg) of protein samples were subjected to 8-15% SDS-PAGE. The proteins were transferred to nitrocellulose membrane and probed with antibodies specific for FLT-3 and GAPDH.

MV4-11 cells = experiment: Cell proliferation assay (CellTiter 96 AQueous One Solution); assay type: cell-based; settings: Homo sapiens
Description: Protocol for the Cell Proliferation Assays (MV-4-11 Cells).
MV-4-11 or Molm 14 cells were seeded in 96-well plates at a density of 1×10^4 cells/well and treated with various concentrations of the test compounds for 72 hours. The highest concentration was 500 nM and was serially diluted 5-fold seven times. After incubation, 20 μl/well of CellTiter 96® AQueous One Solution Reagent (Promega®) was added and the plate was incubated an additional 3 hours. The absorbance was measured at 490 nm, and cell viability was calculated by comparing to the absorbance of the vehicle-treated control group using GraphPad Prism 7.
Cell viability/survival is illustrated in FIGS. 4A, 4B and 4C, as determined by a cell proliferation assay. […] DC50, IC50, MH+, and NMR data for exemplary PROTAC-34 through PROTAC-38 and PROTAC-34-Epimer (structure shown below) is shown in Table 3 below.

Degradation observed (FLT-3)	IC50 (MV4-11 cells; MV4-11, Table 3, MV4-11, read-out: IC50 [cell line]) [nM]	IC50 (MV4-11 cells; MV4-11, 72 h, Table 1, MV4-11 cells, 72 hours, cell viability, read-out: IC50 (nM) MV4-11) [nM]	IC50 (MV4-11 cells; MV4-11, 72 h, Table 2, MV4-11 cells, 72 hours, cell viability, read-out: IC50 (nM) MV4-11) [nM]	SMILES
No degradation	2.27			Cc1ncsc1-c1ccc(CNC(=O)[C@@H]2C[C@@H](O)CN2C(=O)[C@@H](NC(=O)CCOCCOCCOc2ccc3c(c2)sc2nc(-c4ccc(NC(=O)Nc5cc(C(C)(C)C)on5)cc4)cn23)C(C)(C)C)cc1 [PROTAC-34-Epimer]
No degradation				Cc1ncsc1-c1ccc(CNC(=O)[C@@H]2C[C@@H](O)CN2C(=O)[C@@H](NC(=O)CCOCCCCOc2ccc3c(c2)sc2nc(-c4ccc(NC(=O)Nc5cc(C(C)(C)C)on5)cc4)cn23)C(C)(C)C)cc1 [PROTAC-37]
		2.34	1.75	CC(C)(C)c1cc(NC(=O)Nc2ccc(-c3cn4c(n3)sc3cc(OCCN5CCOCC5)ccc34)cc2)no1 [Quizartinib]
